Assay [1] has as its system HUVEC, HepaRG, ACBRI376 and 1321N1 cells. Kind of assay: Endocytosis of rhodamine-coupled peptides, fluorescence microscopy (RRFL). It counts as cell-based, human. The conditions noted are these: all studied cell models, p < 0.001 in HepaRG, p < 0.05 in HUVEC. The protocol: Cells were seeded onto coverslips coated with collagen (0.2 mg/mL, Sigma-Aldrich, Overijse, Belgium) at a density of 8 × 10^5 cells/well and grown for 3 days.
Cells were incubated for 2 h at 37 °C in the dark with LRPep1-rho or LRPep2-rho (peptides coupled to rhodamine, 200 µM in culture medium for HepaRG and HUVEC, 25 µM for ACBRI376 and 1321N1); the negative control was incubated with culture medium. The use of the rhodamine as a fluorescent probe was based on our previous experience with labeled peptides. Cells were rinsed two times with PBS (per liter: 8 g NaCl, 0.2 g KCl, 2.31 g Na2HPO4 × 12 H2O, 0.2 g KH2PO4, pH 7.4). […]
Fluorescence was observed using a Leica DM2000 microscope equipped with a light source EL 6000 and a DFC 425C camera (Leica Microsystems, Groot Bijgaarden, Belgium).
Figure 4 Endocytosis of the peptides LRPep1-rho and LRPep2-rho (stained in red) in (A) HUVEC and HepaRG cells and (B) ACBRI376 and 1321N1 cells. […] (C–F) The endocytosis of peptides, as well as the expression of LDLR, was semi-quantitatively evaluated by the measurement of fluorescent labeling using the ImageJ software and was normalized to the number of cells and to the background, giving the relative ratio of fluorescent labeling (RRFL); *: p < 0.05, **: p < 0.001. […]

A further assay relates to ACBRI376 cells. Kind of assay: Colocalization of LRPep2 with caveolae and lysosomes, ACBRI376. It counts as cell-based, human. The protocol:
(§1) Cells were first incubated with LRPep2-rho, as described above (cf. 2.4. Evaluation of the endocytosis potential of peptides LRPep1 and LRPep2), before being permeabilized with methanol. Then, cells were blocked with PBS supplemented with 5% NGS and 0.3% Triton X-100. Caveolae and lysosomes were detected using anti-caveolin 1 and anti-LAMP1 (Lysosomal-Associated Membrane Protein 1) antibodies, respectively, made in rabbit (both from Santa Cruz, Heidelberg, Germany) and incubated overnight at 4 µg/mL in PBS. Finally, cells were incubated for 1 h with an anti-rabbit IgG made in goat coupled to fluorescein (Vector Labconsult) at 20 µg/mL in phosphate buffer pH 7.8 supplemented with 0.5% BSA. Cells were mounted with Vectashield mounting medium with DAPI.

The next assay has as its system HepaRG cells. The assay can be described thus: Colocalization of LRPep2 with caveolae and lysosomes, HepaRG. It counts as cell-based. The note with it: p < 0.001. The protocol: as §1
The next assay has as its system N18(H) cells. Kind of assay: Colocalization of LRPep2 with caveolae and lysosomes, N18(H). The conditions noted are these: differentiated N18(H) cells. It counts as cell-based. The protocol: Experiments on N18(H) cells were performed after differentiation. Cells were immobilized on the appropriate support, and the differentiation was induced the second day, using medium containing 0.2% FBS for 48 h.
as §1

The next assay concerns 1321N1 cells. The assay can be described thus: Colocalization of LRPep2 with caveolae and lysosomes, 1321N1. It counts as cell-based. The protocol: as §1

Turning to HPWCCGLRLDLR [LRPep2], the “Endocytosis of the peptide compared with the other peptide” value in assay [1] is reported as “more effective than that of peptide LRPep1”. The Endocytosis pathway entry in the assay on ACBRI376 cells (ACBRI376, caveolin-1 fluorescence increased (p < 0.05), LAMP1 decreased (p < 0.05)) is listed as “endocytosed by the non-degradation pathway involving caveolae”; in the assay with HepaRG cells, “significant increase of fluorescence was observed for lysosomes”; in the assay with N18(H) cells it was “both pathways”; with 1321N1 cells, “both pathways”. The “Mander's coefficient (M), colocalization of rhodamine with caveolin-1” value in the assay with ACBRI376 cells (ACBRI376 cells, LRPep2-rho 25 µM, 2 h 37 °C, Figure S4) was determined as 82.7%.

For the origin of these results see PMC7407834, “Development of an LDL Receptor-Targeted Peptide Susceptible to Facilitate the Brain Access of Diagnostic or Therapeutic Agents” (Biology, 2020).
